Measured values published in patent US9487515B2, “Compounds modulating c-fms and/or c-kit activity and uses therefor” (Plexxikon Inc., priority 2006, dated 2016).

Target: c-kit (Homo sapiens, UniProt P10721)
Assay: c-kit assays of Examples 40 and 41 (AlphaScreen kinase assays at 10 and 100 μM ATP, 33P-ATP filter assay, M-07e SCF-stimulated proliferation and phosphorylation)

Sequence of c-kit (P10721 with tags, fused parts or gaps): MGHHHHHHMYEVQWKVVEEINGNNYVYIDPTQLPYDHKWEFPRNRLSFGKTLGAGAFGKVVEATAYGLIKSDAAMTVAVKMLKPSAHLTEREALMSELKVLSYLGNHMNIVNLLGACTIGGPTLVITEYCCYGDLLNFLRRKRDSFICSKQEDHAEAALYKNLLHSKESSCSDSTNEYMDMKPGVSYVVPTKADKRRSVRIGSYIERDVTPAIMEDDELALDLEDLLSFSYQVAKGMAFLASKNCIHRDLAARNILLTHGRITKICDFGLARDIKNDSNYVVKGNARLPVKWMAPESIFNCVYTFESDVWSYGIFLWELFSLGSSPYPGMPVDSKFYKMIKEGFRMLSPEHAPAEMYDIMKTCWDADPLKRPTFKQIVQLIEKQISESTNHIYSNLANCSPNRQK

Structure (SMILES)	IC50 [nM]
c1ccc(CNc2ccc(Cc3c[nH]c4ncccc34)cn2)cc1 [P-0001, benzyl-[5-(1H-pyrrolo[2,3-b]pyridin-3-ylmethyl)-pyridin-2-yl]-amine]	< 1000
O=C(c1ccc(NCc2ccccc2)nc1)c1c[nH]c2ncccc12 [P-0002, (6-Benzylamino-pyridin-3-yl)-(1H-pyrrolo[2,3-b]pyridin-3-yl)-methanone]	< 1000
COc1ccc(CNc2ccc(Cc3c[nH]c4ncccc34)cn2)cc1 [P-0004, (4-methoxy-benzyl)-[5-(1H-pyrrolo[2,3-b]pyridin-3-ylmethyl)-pyridin-2-yl]-amine]	< 1000
c1csc(CNc2ccc(Cc3c[nH]c4ncccc34)cn2)c1 [P-0008, [5-(1H-pyrrolo[2,3-b]pyridin-3-ylmethyl)-pyridin-2-yl]-thiophen-2-ylmethyl-amine]	< 1000
COc1ccnc2[nH]cc(Cc3ccc(NCc4ccc(Cl)cc4)nc3)c12 [P-0010, [5-(4-Methoxy-1H-pyrrolo[2,3-b]pyridin-3-ylmethyl)-pyridin-2-yl]-(4-chloro-benzyl)-amine]	< 1000
COc1ccnc2[nH]cc(Cc3ccc(NCc4ccc(C(F)(F)F)cc4)nc3)c12 [P-0011, [5-(4-Methoxy-1H-pyrrolo[2,3-b]pyridin-3-ylmethyl)-pyridin-2-yl]-(4-trifluoromethyl-benzyl)-amine]	< 1000
Cc1nc(NCc2ccc(C(F)(F)F)cc2)ccc1Cc1c[nH]c2ncccc12 [P-0013, [6-Methyl-5-(1H-pyrrolo[2,3-b]pyridin-3-ylmethyl)-pyridin-2-yl]-(4-trifluoromethyl-benzyl)-amine]	< 1000
Cc1nc(NCc2ccc(Cl)cc2)ccc1Cc1c[nH]c2ncccc12 [P-0014, (4-Chloro-benzyl)-[6-methyl-5-(1H-pyrrolo[2,3-b]pyridin-3-ylmethyl)-pyridin-2-yl]-amine]	< 1000
O=C(c1ccc(NCc2ccc(F)cc2)nc1)c1c[nH]c2ncccc12 [P-0015, [6-(4-Fluoro-benzylamino)-pyridin-3-yl]-(1H-pyrrolo[2,3-b]pyridin-3-yl)-methanone]	< 1000
O=C(c1ccc(NCc2ccc(C(F)(F)F)cc2)nc1)c1c[nH]c2ncccc12 [P-0017, (1H-Pyrrolo[2,3-b]pyridin-3-yl)-[6-(4-trifluoromethyl-benzylamino)-pyridin-3-yl]-methanone]	< 1000
O=C(c1ccc(NCc2cccs2)nc1)c1c[nH]c2ncccc12 [P-0018, (1H-Pyrrolo[2,3-b]pyridin-3-yl)-{6-[(thiophen-2-ylmethyl)-amino]-pyridin-3-yl}-methanone]	< 1000
COc1ccc(Cc2c[nH]c3nccc(-c4ccsc4)c23)cn1 [P-0022, 3-(6-Methoxy-pyridin-3-ylmethyl)-4-thiophen-3-yl-1H-pyrrolo[2,3-b]pyridine]	< 1000
O=C(c1ccc(Nc2cccc(O)c2)nc1)c1c[nH]c2ncccc12 [P-0027, [6-(3-Hydroxy-phenylamino)-pyridin-3-yl]-(1H-pyrrolo[2,3-b]pyridin-3-yl)-methanone]	< 1000
Clc1ccc(CNc2ccc(Cc3c[nH]c4ncc(Br)cc34)cn2)cc1 [P-0038, [5-(5-Bromo-1H-pyrrolo[2,3-b]pyridin-3-ylmethyl)-pyridin-2-yl]-(4-chloro-benzyl)-amine]	< 1000
Clc1ccc(CNc2ccc(Cc3c[nH]c4ncccc34)nn2)cc1 [P-0092, (4-Chloro-benzyl)-[6-(1H-pyrrolo[2,3-b]pyridin-3-ylmethyl)-pyridazin-3-yl]-amine]	< 1000
c1cnc2[nH]cc(Cc3ccc(NCc4ccc(CN5CCOCC5)cc4)nc3)c2c1 [P-0093, (4-Morpholin-4-ylmethyl-benzyl)-[5-(1H-pyrrolo[2,3-b]pyridin-3-ylmethyl)-pyridin-2-yl]-amine]	< 1000

Structure (SMILES)	IC50 [nM]
c1cncc(CNc2ccc(Cc3c[nH]c4ncccc34)cn2)c1 [P-0094, Pyridin-3-ylmethyl-[5-(1H-pyrrolo[2,3-b]pyridin-3-ylmethyl)-pyridin-2-yl]-amine]	< 1000
Cc1cc(CNc2ccc(Cc3c[nH]c4ncccc34)cn2)no1 [P-0095, (5-Methyl-isoxazol-3-ylmethyl)-[5-(1H-pyrrolo[2,3-b]pyridin-3-ylmethyl)-pyridin-2-yl]-amine]	< 1000
c1cnc2[nH]cc(Cc3ccc(NCCN4CCCC4)nc3)c2c1 [P-0096, (2-Pyrrolidin-1-yl-ethyl)-[5-(1H-pyrrolo[2,3-b]pyridin-3-ylmethyl)-pyridin-2-yl]-amine]	< 1000
CC(Nc1ccc(Cc2c[nH]c3ncccc23)cn1)c1ccc(S(C)(=O)=O)cc1 (centres unmarked) [P-0097, [1-(4-Methanesulfonyl-phenyl)-ethyl]-[5-(1H-pyrrolo[2,3-b]pyridin-3-ylmethyl)-pyridin-2-yl]-amine]	< 1000
COCCNc1ccc(Cc2c[nH]c3ncccc23)cn1 [P-0098, (2-Methoxy-ethyl)-[5-(1H-pyrrolo[2,3-b]pyridin-3-ylmethyl)-pyridin-2-yl]-amine]	< 1000
c1cnc2[nH]cc(Cc3ccc(NCCN4CCOCC4)nc3)c2c1 [P-0099, (2-Morpholin-4-yl-ethyl)-[5-(1H-pyrrolo[2,3-b]pyridin-3-ylmethyl)-pyridin-2-yl]-amine]	< 1000
O=C(Nc1ccc(Cc2c[nH]c3ncccc23)cn1)c1ccc(Cl)c(Cl)c1 [P-0100, 3,4-Dichloro-N-[5-(1H-pyrrolo[2,3-b]pyridin-3-ylmethyl)-pyridin-2-yl]-benzamide]	< 1000
O=C(Nc1ccc(Cc2c[nH]c3ncccc23)cn1)c1ccc(F)cc1Cl [P-0101, 2-Chloro-4-fluoro-N-[5-(1H-pyrrolo[2,3-b]pyridin-3-ylmethyl)-pyridin-2-yl]-benzamide]	< 1000
Cc1cc(C(=O)Nc2ccc(Cc3c[nH]c4ncccc34)cn2)n(C)n1 [P-0102, 2,5-Dimethyl-2H-pyrazole-3-carboxylic acid [5-(1H-pyrrolo[2,3-b]pyridin-3-ylmethyl)-pyridin-2-yl]-amide]	< 1000
O=C(Nc1ccc(Cc2c[nH]c3ncccc23)cn1)c1cccs1 [P-0103, Thiophene-2-carboxylic acid [5-(1H-pyrrolo[2,3-b]pyridin-3-ylmethyl)-pyridin-2-yl]-amide]	< 1000
COc1cc(C(=O)Nc2ccc(Cc3c[nH]c4ncccc34)cn2)ccn1 [P-0104, 2-Methoxy-N-[5-(1H-pyrrolo[2,3-b]pyridin-3-ylmethyl)-pyridin-2-yl]-isonicotinamide]	< 1000
O=C(Nc1ccc(Cc2c[nH]c3ncccc23)cn1)c1ccncc1 [P-0105, N-[5-(1H-Pyrrolo[2,3-b]pyridin-3-ylmethyl)-pyridin-2-yl]-isonicotinamide]	< 1000
O=C(Nc1ccc(Cc2c[nH]c3ncccc23)cn1)c1ccccn1 [P-0107, Pyridine-2-carboxylic acid [5-(1H-pyrrolo[2,3-b]pyridin-3-ylmethyl)-pyridin-2-yl]-amide]	< 1000
Cc1ccc(C(=O)Nc2ccc(Cc3c[nH]c4ncccc34)cn2)cn1 [P-0108, 6-Methyl-N-[5-(1H-pyrrolo[2,3-b]pyridin-3-ylmethyl)-pyridin-2-yl]-nicotinamide]	< 1000
Cc1cc(C(=O)Nc2ccc(Cc3c[nH]c4ncccc34)cn2)ccc1F [P-0109, 4-Fluoro-3-methyl-N-[5-(1H-pyrrolo[2,3-b]pyridin-3-ylmethyl)-pyridin-2-yl]-benzamide]	< 1000
O=C(Nc1ccc(Cc2c[nH]c3ncccc23)cn1)c1cccc(Cl)c1 [P-0111, 3-chloro-N-[5-(1H-pyrrolo[2,3-b]pyridin-3-ylmethyl)-pyridin-2-yl]-benzamide]	< 1000
